What was measured:
Assay in all cases: relative viability (nuclei count vs DMSO), 5 days (fraction); higher = more cells survive
[1] = compound: C1COCCN1C2=NC(=NC3=C2OC4=C3C=CC=N4)C5=CC(=CC=C5)NC(=O)C6=CN=C(C=C6)N + NC(=O)Nc1cc(-c2cccc(F)c2)sc1C(=O)N[C@H]1CCCNC1 [AZD7762] (partner 0.2 µM)
Outline: (§1)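 Lung cancer cell lines were seeded in 1536-well plates and dosed by pin tool the next day, with either a single drug or a fixed anchor-drug dose combined with five library-drug doses (not always all listed) spaced in √10 steps. Five days later, one step fixed the cells and stained their nuclei (final 0.05% Triton X-100, 1% formaldehyde, 1 ug/ml Hoechst), and nuclei were counted on 4× images. Relative viability is the nuclei count in treated wells divided by the count in vehicle wells, and each value is the median of duplicate plates.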

[2] = compound: C1COCCN1C2=NC(=NC3=C2OC4=C3C=CC=N4)C5=CC(=CC=C5)NC(=O)C6=CN=C(C=C6)N + O=C(CCCCCCC(=O)Nc1ccccc1)NO [Vorinostat] (partner 1 µM)
Outline: as §1

[3] = compound: C1COCCN1C2=NC(=NC3=C2OC4=C3C=CC=N4)C5=CC(=CC=C5)NC(=O)C6=CN=C(C=C6)N + O=C(c1cc(Cc2n[nH]c(=O)c3ccccc23)ccc1F)N1CCN(C(=O)C2CC2)CC1 [Olaparib] (partner 8 µM)
Outline: as §1

SGI-1776 + Vorinostat = compound: CN1CCC(CNc2ccc3ncc(-c4cccc(OC(F)(F)F)c4)n3n2)CC1 [SGI-1776] + O=C(CCCCCCC(=O)Nc1ccccc1)NO [Vorinostat] (partner 1 µM)
Outline: as §1

Cell Line | relative viability ([1]; first compound 0.02 µM) | relative viability ([1]; first compound 0.06325 µM) | relative viability ([1]; first compound 0.2 µM) | relative viability ([1]; first compound 0.6325 µM) | relative viability ([1]; first compound 2 µM) | relative viability ([2]; first compound 0.02 µM) | relative viability ([2]; first compound 0.06325 µM) | relative viability ([2]; first compound 0.2 µM) | relative viability ([2]; first compound 0.6325 µM) | relative viability ([2]; first compound 2 µM) | relative viability ([3]; first compound 0.02 µM) | relative viability ([3]; first compound 0.06325 µM) | relative viability ([3]; first compound 0.2 µM) | relative viability ([3]; first compound 0.6325 µM) | relative viability ([3]; first compound 2 µM) | relative viability (SGI-1776 + Vorinostat; first compound 0.08 µM) | relative viability (SGI-1776 + Vorinostat; first compound 0.8 µM) | relative viability (SGI-1776 + Vorinostat; first compound 2.53 µM) | relative viability (SGI-1776 + Vorinostat; first compound 8 µM)
ChaGo-K-1 | 0.892 | 0.93 | 0.84 | 0.886 | 0.635 | 0.746 | 0.829 | 0.73 | 0.67 | 0.515 | 0.435 | 0.402 | 0.401 | 0.409 | 0.331 | 0.788 | 0.825 | 0.797 | 0.73
EMC-BAC-2 | 1.2 | 1.11 | 1.14 | 1.01 | 1.01 | 0.533 | 0.376 | 0.329 | 0.413 | 0.419 | 0.483 | 0.484 | 0.472 | 0.476 | 0.445 | 0.551 | 0.593 | 0.424 | 0.298
LCLC-97TM1 | 0.19 | 0.236 | 0.231 | 0.258 | 0.256 | 0.804 | 0.862 | 0.751 | 0.755 | 0.43 | 0.533 | 0.388 | 0.341 | 0.33 | 0.287 | 0.777 | 0.842 | 0.79 | 0.727
LK-2 | 0.427 | 0.406 | 0.378 | 0.416 | 0.221 | 0.125 | 0.317 | 0.247 | 0.273 | 0.257 | 0.609 | 0.902 | 0.691 | 0.651 | 0.464 | 0.35 | 0.347 | 0.23 | 0.321
